Test results from publication PMC10723784, “Investigation of the cytotoxicity induced by cannabinoids on human ovarian carcinoma cells” (Pharmacology Research & Perspectives, 2023).
Where “and” joins values, the source holds several entries; their conditions need not be identical. Identical values can stand only once. Like-named read-outs stand apart in the source and are kept apart here.

Key:
A2780 cells [1] = test: MTT cytotoxicity assay, A2780 cells; conditions: for Combination index (CI), carboplatin + CBD: A2780, 100 nM CBD
Method: (§1) In separate experiments, cells were seeded in 96‐well plates and after 24 h elapsed they were exposed to different concentrations of drugs or vehicle. Cells were then left in the incubator for a further 24 or 48 h. Then the media was replaced with fresh media containing no drug and the cells were left in the incubator. MTT assay was performed after 96 h elapsed from the time when cells were exposed to drugs or vehicle.
(§2) The cells were then left in the incubator and MTT assay was performed 96 h following the initial exposure to the drugs.
(§3) The selective index (SI) is the ratio of mean IC50 values for non‐cancer cells to cancer cells. […] While the isobologram can be considered predominantly as a graphical depiction of drug interactions, the combination index (CI) is a quantitative representation. It relates the actual drug concentration in the combination to the concentration of the single drug that achieves the same effect. […] Here, CI analysis was used to investigate combinations at 50% cytotoxicity. To this end the IC50 of the viability dose–response curves were determined by non‐linear regression curve fit analysis (GraphPad Prism, v5.00).
(§4) CIA+B is the combination index of A and B; C A the concentration of A applied in combination; C B the concentration of B applied in combination; IC50 A the IC50 of drug A when it was applied individually to the cells; IC50 B = IC50 of drug B when it was applied individually to the cells.

A2780/CP70 cells [2] = test: MTT cytotoxicity assay, A2780/CP70 cells; conditions: for Combination index (CI), carboplatin + CBD: A2780/CP70, 100 nM CBD; for Combination index (CI), carboplatin + CBG: A2780/CP70, 100 nM CBG
Method: as §1, §2, §3, §4

[3] = tested on: caspase 3/7 activity in A2780 cells; test: Caspase 3/7 assay, A2780 cells; assay type: cell-based, human; conditions: A2780, 24 h contact time, dose-dependent, significant above 10 μM
Method: (§5) Sensolyte homogenous caspase 3/7 assay kit was used to determine the caspase activity in ovarian cancer cells when treated with CBG. Cells were seeded in 96‐well plate at 6 × 10^3 cells per well and were incubated for 24 h. CBG was added in concentrations of 10, 20, 30, and 50 μM and incubated for a further 24 h. After the incubation time elapsed, the media was removed and replaced with 150 μL/well of fresh complete media. Caspase 3/7 solution was prepared by diluting the caspase substrate 1:100 with DTT‐containing assay buffer. 50 μL/well caspase substrate was added to the plates, and the cells were incubated for 30 min. Ac‐DEVD‐AMC serves as the fluorogenic indicator for assaying caspase‐3/7 activity. Ac‐DEVD‐AMC generates the AMC fluorophore in the presence of caspase 3/7, which produces bright blue fluorescence. The fluorescence was measured by the FLOUstar OPTIMA plate reader with the excitation at 354 nm and emission at 442 nm.
(§6) The level of caspase 3/7 was also determined using Apotox‐Glo Triple assay. Cells were seeded and drugs were added as described above in Section 2.6.1. After 24 h incubation, caspase 3/7 reagent was prepared by mixing caspase buffer and substrate and 100 μL of reagent was added to each well for 30 min incubation at room temperature. […] The luminescence was measured by the FLOUstar OPTIMA plate reader.

[4] = tested on: caspase 3/7 activity in A2780/CP70 cells; test: Caspase 3/7 assay, A2780/CP70 cells; assay type: cell-based, human; conditions: A2780/CP70, 24 h contact time, dose-dependent, significant above 10 μM
Method: as §5, §6

A2780/CP70 cells [5] = test: Cell cycle analysis (DAPI, NC-3000), A2780/CP70 cells; assay type: cell-based, human; conditions: 48 h
Method: (§7) Cells were seeded in T25 flasks at 4 × 10^5 cells per flask and were incubated for 48 h or until they reached confluency. […] After the incubation time elapsed cells were suspended in PBS with a density closer to 1 × 10^6cells/mL. The cells were washed twice with 1× PBS before the addition of 250 μL of lysis buffer (solution 10) supplemented with 10 μg/mL DAPI (solution 12) was added to the samples and incubated for 5 min at 37°C. After incubation, 250 μL of stabilization buffer (solution 11) was added. 12.5 μL of samples were loaded on to an A‐8 slide and were analyzed using the NC‐3000 system.

A2780 cells [6] = test: Mitochondrial membrane potential assay (JC-1), A2780 cells; assay type: cell-based, human; conditions: A2780, 10-50 μM, 24 h, dose-dependent
Method: (§8) The mitochondrial membrane potential assay was performed to detect the loss in mitochondrial potential (de‐polarization), which is a vital step in apoptosis.[36] Cells were seeded in T25 flasks at 4 × 10^5 cells per flask and were incubated for 48 h or until they reached confluency. After the incubation time elapsed, drugs at concentrations of 10, 30, and 50 μM or vehicle were added to the flasks and further incubated for 24 h. After 24 h elapsed, the cells were harvested and suspended in PBS. Cell viability and number were determined by the cell viability assay using via1 cassettes on NC‐3000 system. The samples were diluted in PBS to 1 × 10^6 cells/mL and 2.5 μg/mL of JC‐1 dye was added to each sample. JC‐1 is a […] dye, which stains as fluorescent red as it aggregates in the mitochondrial matrix. In the absence of mitochondrial membrane potential, JC‐1 localizes in the cytosol in its fluorescent green form. Following the addition of JC‐1, the cells were incubated for 10–30 min at 37°C. […] 12.5 μL of samples were loaded on to an A‐8 slide and were analyzed using the NC‐3000 image cytometry. The degree of apoptosis (in proportional to the loss in mitochondrial membrane potential) was measured using a scatter plot of JC‐1 red fluorescence versus JC‐1 green fluorescence.

A2780/CP70 cells [7] = test: Mitochondrial membrane potential assay (JC-1), A2780/CP70 cells; assay type: cell-based, human; conditions: A2780/CP70, 10-50 μM, 24 h, dose-dependent
Method: as §8

[8] = MTT cytotoxicity assay, non-cancer ARPE19 cells; conditions: human, ARPE19 non-cancer retinal pigment cells
Method: (§9) Human ovarian carcinoma cells, A2780 (sensitive to chemotherapeutics), A2780/CP70 (resistant to chemotherapeutics), and non‐cancerous cells including PNT2 (normal prostate epithelial cell line), and/or ARPE19 (human retinal pigment cell line) were maintained according to the ATCC and ECACC guidelines.
(§10) In vitro chemosensitivity assays were performed using the MTT assay as previously described.[32], [33] Briefly, at 70% confluency, cells were seeded in 96‐well plates at a density of 2000 cells/well. […] After the allocated contact time had elapsed, the media was removed and 0.5% (w/v) MTT solution diluted in complete media (200 μL) was added to each well. Following a 4 h incubation, the supernatants were removed, and the formazan crystals were dissolved in dimethylsulfoxide (150 μL). The absorbance was read at 540 nm on a Tecan Infinite 50 plate UV reader.

[9] = high doses such as 1500 mg/day; cited from earlier work
A2780 cells [10] = test: Cell cycle analysis (DAPI, NC-3000), A2780 cells; assay type: cell-based, human; conditions: 48 h
Method: as §7

[11] = MTT cytotoxicity assay, non-cancer PNT2 cells; conditions: human, PNT2 normal prostate epithelial cells
Method: as §9, §10

## COc1ccc(C(=O)c2c(C)n(CCN3CCOCC3)c3cc(I)ccc23)cc1 [AM630]
A2780 cells [1]; A2780, antagonist alone
  Concentrations at which the antagonist alone induced cytotoxicity: higher than 1 μM
A2780/CP70 cells [2]; A2780/CP70, antagonist alone
  Concentrations at which the antagonist alone induced cytotoxicity: higher than 1 μM

## C=C(C)[C@@H]1CCC(C)=C[C@H]1c1c(O)cc(CCCCC)cc1O [CBD, cannabidiol]
[3]
  Caspase 3/7 activity: increased the caspase 3/7 activity
[4]
  Caspase 3/7 activity: increased the caspase 3/7 activity
A2780 cells [1]; Homo sapiens, A2780, 24 h, read-out: IC50 cytotoxicity
  IC50: 12.3 ± 0.7 µM
A2780 cells [1]; Homo sapiens, A2780, 48 h, read-out: IC50 cytotoxicity
  IC50: 6.8 ± 1.1 µM
A2780 cells [1]; Homo sapiens, A2780, 72 h, read-out: IC50 cytotoxicity
  IC50: 4.5 ± 0.1 µM
A2780 cells [1]; Homo sapiens, A2780, 96 h, read-out: IC50 cytotoxicity
  IC50: 3.5 ± 0.2 µM
A2780 cells [1]; human
  Cytotoxicity: approximately 90%
A2780/CP70 cells [5]; A2780/CP70, 10 μM
  Cells in G0/G1 phase: 77.4 ± 1.3%
A2780/CP70 cells [5]; A2780/CP70, 30 μM
  Cells in G0/G1 phase: 85.1 ± 1.1%
A2780/CP70 cells [5]; A2780/CP70, 50 μM
  Cells in G0/G1 phase: 64.9 ± 0.9%
  Cells in subG1 phase: 6 ± 0.9%
A2780 cells [6]
  Percentage of apoptotic cells (loss of mitochondrial membrane potential): induced an increase in the percentage of apoptotic cells
A2780/CP70 cells [7]
  Percentage of apoptotic cells (loss of mitochondrial membrane potential): induced an increase in the percentage of apoptotic cells
[8]
  IC50 at 24 h: 25.3 ± 1.8 µM
  IC50 at 48 h: 14.4 ± 0.9 µM
  IC50 at 72 h: 13 µM
  IC50 at 96 h: 11.7 ± 1.2 µM
[9]
  Tolerability in humans: well tolerated
A2780/CP70 cells [2]
  Selectivity index: 1.57 and 1.28 and 1.78 and 2.02 and 2.49 and 1.52 and 2.35 and 2.48
A2780/CP70 cells [2]; Homo sapiens, A2780/CP70, 24 h, read-out: IC50 cytotoxicity
  IC50: 16.1 ± 0.6 µM
A2780/CP70 cells [2]; Homo sapiens, A2780/CP70, 48 h, read-out: IC50 cytotoxicity
  IC50: 11.2 ± 0.7 µM
A2780/CP70 cells [2]; Homo sapiens, A2780/CP70, 72 h, read-out: IC50 cytotoxicity
  IC50: 7.3 ± 0.4 µM
A2780/CP70 cells [2]; Homo sapiens, A2780/CP70, 96 h, read-out: IC50 cytotoxicity
  IC50: 5.8 ± 0.8 µM
A2780 cells [10]; A2780, 10 μM
  Cells in G0/G1 phase: 81.4 ± 1.3%
A2780 cells [10]; A2780, 30 μM
  Cells in G0/G1 phase: 85 ± 1.5%
  Cells in S phase: 6 ± 1.5%
A2780 cells [10]; A2780, 50 μM
  Cells in G0/G1 phase: 61.6 ± 1.4%
  Cells in subG1 phase: 11.1 ± 1.0%
[11]
  IC50 at 24 h: 40.6 ± 2.3 µM
  IC50 at 48 h: 17.7 ± 2.4 µM
  IC50 at 72 h: 17.2 ± 0.6 µM
  IC50 at 96 h: 14.4 ± 1.6 µM

## N.N.O=C([O-])C1(C(=O)[O-])CCC1.[Pt+2] [carboplatin]
A2780 cells [1]; 24 h, at 50% cytotoxicity
  Combination index (CI), carboplatin + CBD: 0.36
A2780 cells [1]; 48 h, at 50% cytotoxicity
  Combination index (CI), carboplatin + CBD: 0.17
A2780 cells [1]; 72 h, at 50% cytotoxicity
  Combination index (CI), carboplatin + CBD: 0.15
A2780 cells [1]; 96 h, at 50% cytotoxicity
  Combination index (CI), carboplatin + CBD: 0.096
A2780 cells [1]; A2780, 100 nM CBG, 96 h, at 50% cytotoxicity
  Combination index (CI), carboplatin + CBG: 0.55
A2780 cells [1]; read-out: IC50 cytotoxicity, recovery, A2780, 24 h exposure then drug washed out, MTT at 96 h
  IC50: 7.9 ± 0.5 µM
A2780 cells [1]; read-out: IC50 cytotoxicity, recovery, A2780, 48 h exposure then drug washed out, MTT at 96 h
  IC50: 4.7 ± 0.2 µM
A2780 cells [1]; read-out: IC50 cytotoxicity, recovery, A2780, 48 h exposure then drug washed out, MTT at 96 h, listed as Carboplatin
  IC50: 4.8 ± 0.2 µM
A2780 cells [1]; read-out: IC50 cytotoxicity, recovery, A2780, 72 h exposure then drug washed out, MTT at 96 h
  IC50: 2.6 ± 0.5 µM
A2780 cells [1]; read-out: IC50 cytotoxicity, A2780, 24 h contact time, MTT
  IC50: > 100 µM
A2780 cells [1]; read-out: IC50 cytotoxicity, A2780, 48 h contact time, MTT
  IC50: 17.3 ± 0.6 µM
A2780 cells [1]; read-out: IC50 cytotoxicity, A2780, 72 h contact time, MTT
  IC50: 4.3 ± 0.7 µM
A2780 cells [1]; read-out: IC50 cytotoxicity, A2780, 96 h contact time, MTT
  IC50: 2.57 µM and 2.5 µM and 2.6 µM
A2780 cells [1]; read-out: IC50 cytotoxicity, A2780, 96 h contact time, MTT, listed as Carboplatin
  IC50: 2.6 ± 0.3 µM
A2780/CP70 cells [2]; 24 h
  Combination index (CI), carboplatin + CBD: 0.85
A2780/CP70 cells [2]; 48 h
  Combination index (CI), carboplatin + CBD: 0.78
  Combination index (CI), carboplatin + CBG: 0.78
A2780/CP70 cells [2]; 72 h
  Combination index (CI), carboplatin + CBD: 0.8
  Combination index (CI), carboplatin + CBG: 0.71
A2780/CP70 cells [2]; 96 h
  Combination index (CI), carboplatin + CBD: 0.57
  Combination index (CI), carboplatin + CBG: 0.65
A2780/CP70 cells [2]; read-out: IC50 cytotoxicity, recovery, A2780/CP70, 24 h exposure then drug washed out, MTT at 96 h
  IC50: 66.5 ± 3.4 µM
A2780/CP70 cells [2]; read-out: IC50 cytotoxicity, recovery, A2780/CP70, 48 h exposure then drug washed out, MTT at 96 h
  IC50: 48.7 ± 0.4 µM
A2780/CP70 cells [2]; read-out: IC50 cytotoxicity, recovery, A2780/CP70, 72 h exposure then drug washed out, MTT at 96 h
  IC50: 45.5 ± 2.6 µM
A2780/CP70 cells [2]; read-out: IC50 cytotoxicity, A2780/CP70, 24 h contact time, MTT
  IC50: > 100 µM
A2780/CP70 cells [2]; read-out: IC50 cytotoxicity, A2780/CP70, 48 h contact time, MTT
  IC50: > 100 µM
A2780/CP70 cells [2]; read-out: IC50 cytotoxicity, A2780/CP70, 72 h contact time, MTT
  IC50: 48 ± 1.9 µM
A2780/CP70 cells [2]; read-out: IC50 cytotoxicity, A2780/CP70, 96 h contact time, MTT
  IC50: 44.9 ± 3.5 µM

## Cc1c(C)c2c(c(C)c1O)CC[C@@](C)(CCC[C@H](C)CCC[C@H](C)CCCC(C)C)O2 [α‐tocopherol]
A2780 cells [1]; alone up to 100 μM, preliminary experiments, cell line not named (A2780 and A2780/CP70 tested)
  Effect on viability of the cells when used alone: did not compromise the viability of the cells
